Data: patent US11634452B2, “Compounds for treating neurodegenerative disorders” (ETHNODYNE, priority 2017, dated 2023)
Entries after “also recorded” stand apart in the source; their conditions may differ.

Tested on: primary rat dopaminergic neurons (TH positive neurons) injured with 6-OHDA
Assay: Neuroprotective effect following exposure to 6-OHDA, with or without pathway inhibitors
Type: cell-based
Method: This study investigated the mode of action of CR777 on rat primary mesencephalic cultures following exposure to 6-OHDA. The effect of CR777 on level of GDNF and BDNF mRNA was investigated after 24 h 6-OHDA incubation and CR777. The main pathways of survival, regulation of the apoptosis and neuronal growth were investigated in presence of CR777 and inhibitors of these different pathways. The following pathways were investigated using antagonists of different proteins of interest: • RAS (small GTPase)/RAF (proto-oncogene Serine/threonine kinase); • Peroxisome proliferator-activated receptor gamma (PPAR-γ) (nuclear receptor) • The Pi3K/AKT/mTor (cell signaling pathway that plays a key role in cellular homeostasis through its role in regulation of apoptosis, cell growth, cell cycle). • NO (nitric oxide) pathway
Rat dopaminergic neurons were cultured as described in Example 4.
On day 6 of culture, the medium was removed and fresh medium was added, without or with 6-OHDA (Sigma, Batch: 083M4624V) at 20 μM diluted in control medium and let for 48 h. In parallel, all inhibitors were solved in culture medium and were added 2 h before the 6-OHDA application (namely 1 h before test compounds application).
CR777 was solved in DMSO at 10 mM, diluted in culture medium and then pre-incubated with mesencephalic neurons 1 hour before the 6-OHDA application (48 h). 6 wells per condition were assessed.
For survival and α-syn aggregation, compound was tested on 1 culture in a 96 well-plate (6 wells per condition), was pre-incubated 1 hour before 6-OHDA and let for 48 hours.
The following conditions were assessed: • Control (culture medium) • +6-OHDA (20 μM, 48 h) • +6-OHDA (20 μM, 48 h)+CR777 1 μM • +6-OHDA (20 μM, 48 h)+CR777 100 nM • +6-OHDA (20 μM, 48 h)+CR777 10 nM • +6-OHDA (20 μM, 48 h)+CR777 1 nM
For pathway investigation, the compound was tested on one primary dopaminergic culture in 96 well plates (6 wells per conditions).
Inhibitors were pre-incubated for 2 hours before 6-OHDA application and CR777 was pre-incubated 1 hour before 6-OHDA application.
The antagonists/inhibitors used in the experiments are the following: • FTS: farnesylthiosalicylic acid selectively disrupts the association of chronically active Ras proteins with the plasma membrane. • BEZ-235: dual PI3K/mTOR inhibitor. • T0070907: selective PPAR-γ antagonist • L-NAME (Nitro-L-arginine methyl ester): precursor to NOS inhibitor, L-NNA—requires bioactivation to become a fully functional inhibitor. • ABT-199: selective inhibitor of Bcl-2.
48 hours after intoxication, the cell culture supernatant was taken off and the dopaminergic neurons were fixed by a solution of 4% paraformaldehyde in PBS, pH=7.3 for 20 min at room temperature.
After permeabilization with 0.1% of saponin, cells were incubated for 2 hours with:
monoclonal Anti-Tyrosine Hydroxylase (TH) antibody produced in mouse at dilution of 1/10000 in PBS containing 1% FCS, 0.1% saponin,
polyclonal anti-α-syn antibody produced in rabbit at dilution of 1/200 for 2 h at room temperature.
For each condition, 20 pictures/well (representative of ˜the all well area) were automatically taken using ImageXpress (Molecular Devices) with 10× magnification. All images were taken with the same conditions. Analysis were automatically performed by using Custom Module Editor (Molecular Devices).
The following endpoint was investigated for each culture well: • The total dopaminergic neuron survival (TH staining), • The total area of α-syn on TH positive neuron (overlapping α-syn/TH)
After permeabilization with 0.1% of saponin, cells were incubated for 2 hours with monoclonal Anti-Tyrosine Hydroxylase (TH) antibody produced in mouse at dilution of 1/10000 in PBS containing 1% FCS, 0.1% saponin, for 2 h at room temperature.
The total dopaminergic neuron survival (TH staining) was investigated for each culture well.

**Q.** Which “neuroprotective effect (TH neuron survival) in presence of Bcl2 pathway inhibitor” value (CR777 10 nM + ABT 199 (5 μM), 6-OHDA 20 μM) does the source give for `CC1=C(CO)C(=O)O[C@@H]([C@@H](C)[C@H]2CCC3C4C[C@H](SC[C@H](NC(=O)CC[C@@H](N)C(=O)O)C(=O)NCC(=O)O)[C@]5(O)[C@@H](O)C=CC(=O)[C@]5(C)C4CC[C@@]32C)C1` (some centres unmarked) [CR777] here?
**A.** Its value is “did not induce any changes”.

**Q.** And the “neuroprotective effect (TH neuron survival) in presence of PI3K/AKT/mTOR pathway inhibitor” value (CR777 10 nM + BEZ235 (40 nM), 6-OHDA 20 μM)?
**A.** Its value is “fully abolished”.

**Q.** And the “neuroprotective effect (TH neuron survival) in presence of Ras/Raf pathway inhibitor” value (CR777 10 nM + FTS (4 μM), 6-OHDA 20 μM)?
**A.** Its value is “did not induce any changes”.

**Q.** What about the “neuroprotective effect (TH neuron survival) in presence of nNOS pathway inhibitor” value (CR777 10 nM + L-NAME (100 μM), 6-OHDA 20 μM) of the same compound?
**A.** Its value is “did not induce any changes”.

**Q.** And the “neuroprotective effect (TH neuron survival) in presence of PPARγ pathway inhibitor” value (CR777 10 nM + T0070907 (1 μM), 6-OHDA 20 μM)?
**A.** The value was “no effect was observed”.

**Q.** And the “TH positive neuron survival” value (CR777 10 nM added 1 h before 6-OHDA (20 μM, 48 h), bell shape curve)?
**A.** The value was “significantly protected neurons from death; also recorded: significant protective effect; also recorded: able to protect TH positive neurons”.

**Q.** And the “α-syn aggregation in TH positive neurons” value (CR777 10 and 100 nM, 6-OHDA 20 μM, 48 h)?
**A.** Its value is “able to reduce the aggregation; also recorded: partially protected”.

**Q.** What about the dopaminergic neurite network (all concentrations tested (1 nM to 1 μM), 6-OHDA 20 μM, 48 h) of the same compound?
**A.** Its dopaminergic neurite network is “significant protective effect”.
